One assay concerns small intestine organoid. The experiment in a line: Small intestine organoid sprouting. It is filed as cell-based, C57BL/6J mice. The following applies: 16 nM on days 0, 2, 4; day 5 of culture; vs PBS buffer. The protocol: In order to establish a small intestine organoid model, the small intestine of 15-week-old male C57BL/6J mice was cut longitudinally from the proximal end to the distal end, and cut transversely into about 5 mm long pieces. The small intestine tissue thus obtained was washed with refrigerated PBS containing 1% penicillin. Thereafter, the washed small intestine tissue was treated with dissociation buffer and filtered through a cell strainer to isolate crypts. The isolated crypt was cultured in Matrigel and Organoid Growth Medium (Intesticult™) mixed at a ratio of 1:1, Matrigel was solidified at 37° C. for 20 minutes in a 12 well plate, and then medium (500 μL/well) was added. The medium was replaced after 4 days, and subculture was performed on day 7.
For novel peptide screening, organoids 3D cultured in medium and Matrigel support were dispensed into 3 wells per group using a 12-well plate and 50 organoids per well. On days 0, 2, and 4 of culture, the organoids were treated with novel tetrapeptides PEP006, PEP007, PEP008, PEP009, and PEP010 and novel tripeptides PEP011, PEP012, and PEP013 at a concentration of 16 nM as described above, and the number of lobes of sprouted organoids on day 5 of culture was examined and analyzed for comparison. The control group was treated with PBS buffer in the same manner.

Assay [1] relates to animal model of metabolic disease accompanied by obesity/diabetes and chronic inflammation. Briefly: High-fat diet obesity/diabetic metabolic disease model. Format: in vivo, C57BL/6J mice. Conditions: for blood glucose in insulin resistance experiment (ITT): after insulin administration, time as stated in the value; for blood glucose in insulin resistance experiment (ITT) / AUC value of the insulin resistance experiment / body weight / LDL-C level in blood / TC (total cholesterol) level in blood / abdominal fat: vs PBS buffer group; for fasting blood glucose: after fasting for 16 hours at the end of the test; for body weight: oral, 3 weeks on high-fat diet; for maintenance of the decreased blood glucose in insulin resistance experiment: until 120 minutes after insulin. As for the experimental part:
An animal model of metabolic disease accompanied by obesity/diabetes and chronic inflammation was induced by feeding a high-fat diet.
The experiment in the groups administered with Amuc_1409 or PEP001 to PEP005 was performed using 8-week-old SPF male C57BL/6J mice, and the metabolic disease accompanied by obesity/diabetes and chronic inflammation was induced by ad libitum feeding of a high-fat diet for 45 weeks or 8 weeks. Specifically, mice fed a high-fat diet for 45 weeks were fed a high-fat diet for an additional 3 weeks, and Amuc_1409 was dissolved in PBS buffer at a concentration of 2.4 μM and then orally administered to the mice by 150 μL per animal at the same time once a day until the end of the experiment, or mice fed a high-fat diet for 8 weeks were fed a high-fat diet for an additional 3 weeks, and PEP001, PEP002, PEP003, PEP004, or PEP005 was dissolved in PBS buffer at a concentration of 2.4 μM and then orally administered to the mice by 150 μL per animal at the same time once a day until the end of the experiment. To the control group, PBS buffer was orally administered in the same manner.
For the experiment in the groups administered with PEP006 to PEP013, 8-week-old male C57BL/6J mice were used, and the metabolic disease accompanied by obesity/diabetes and chronic inflammation was induced by ad libitum feeding of a high-fat diet for 32, 50, or 53 weeks. Mice fed a high-fat diet for 32 weeks were fed a high-fat diet for an additional 3 weeks, and a novel tetrapeptide PEP006 was dissolved in PBS buffer at a concentration of 0.15 μg/150 μL (PEP006) and then orally administered to the mice by 150 μL per animal at the same time until the end of the test, mice fed a high-fat diet for 50 weeks were fed a high-fat diet for an additional 3 weeks, and a novel tetrapeptide PEP007, PEP008, PEP009, or PEP010 was dissolved in PBS buffer at a concentration of 0.2 μg/150 μL (PEP007 to PEP013) and then orally administered to the mice by 150 μL per animal at the same time until the end of the test, and mice fed a high-fat diet for 53 weeks were fed a high-fat diet for an additional 3 weeks, and a novel […] PEP011, PEP012, or PEP013 was dissolved in PBS buffer at a concentration of 0.2 μg/150 μL (PEP007 to PEP013) and then orally administered to the mice by 150 μL per animal at the same time until the end of the test. To the control group, PBS buffer was orally administered in the same manner.
For all animals, general symptoms were observed immediately before administration at the start of administration, and the body weight was measured until the end of the test after group separation.
Insulin (Humalog, 1 unit/kg) was intraperitoneally injected into mice fasted for 4 hours at 2 weeks after the start of test substance administration (2 weeks in groups administered with Amuc_1409 and PEP001 to PEP005 and 3 weeks in groups administered with PEP006 to PEP013), and then blood glucose at 30 minutes, 60 minutes, 90 minutes, and 120 minutes was measured from a small amount of blood obtained through a wound at the tip of the tail using ACCU-CHECK (Roche), thereby performing an insulin tolerance test (ITT).
At the end of the test, fasting blood glucose was measured from a small amount of blood obtained through a wound at the tip of the tail of the mouse fasted for 16 hours using ACCU-CHECK, and blood was collected from the orbital venous plexus using a heparin-treated capillary tube. The collected blood was immediately centrifuged at 10,000 rpm (4° C.) for 10 minutes to separate plasma, and then subjected to analysis of total cholesterol (TC) and low-density lipoprotein cholesterol (LDL-C), which are blood abnormal lipid indicators, using an automated blood biochemical analyzer.

Assay [2] deals with TPA-induced dermatitis model. Briefly: TPA-induced dermatitis (ear) model. It is filed as in vivo, C57BL/6J mice. Conditions: vs PBS buffer group; for ear thickness / ear weight / erythema and swelling of the ear (macro photograph): 26 hours after TPA application. The protocol: As a dermatitis model, one day before sample application, both ears of 8-week-old male C57BL/6J mice were shaved, 2.5 μg of TPA (12-otetrade-canoyl-phorbol-13-acetate) dissolved in 25 μL acetone was applied to the right ear of the mouse to induce skin swelling and inflammation, and the left ear was coated with 25 μL of acetone, which is a TPA solvent, and used as a negative control. From 3 days before TPA application, Amuc_1409 or PEP001 to PEP013 were each dissolved in PBS buffer at a concentration of 6.7 μM, and then injected into the abdominal cavity of mice by 150 μL per animal once a day at the same time. On day 3 (0 days) after administration of the peptide, the peptide was injected intraperitoneally one time 30 minutes before TPA application, and the drug was additionally injected intraperitoneally 3 hours after TPA injection. Into the control group, the same volume of PBS buffer was intraperitoneally injected, and the experiment was terminated 26 hours after TPA application. 26 hours after TPA application, the ear thickness was measured and photographs of both ears for each test group were taken in order to examine the degree of swelling and inflammation relief in the ears. After the test animal was sacrificed, the weight per area of the ear was measured, the ears of mice were fixed in 10% neutral buffered formalin at room temperature for 24 hours or more, and then embedded in paraffin to prepare 5 μm-thick sections, and the sections were stained with hematoxylin and eosin (H&E). The degrees of swelling of the ear and inflammatory cell infiltration were examined by observing the H&E-stained tissue section under an optical microscope.

With AGAY (PEP006), in the assay on small intestine organoid, the “number of lobes of sprouted organoids” value is listed as “significantly increased”. In addition, in assay [1], the “blood glucose in insulin resistance experiment (ITT)” value (“blood glucose … (ITT)” below) was “decreased to a significant level from 30 minutes to 120 minutes after insulin administration” and the “AUC value of the insulin resistance experiment” value (shortened to “AUC value”) is given as “decreased close to a significant level”.

On to AGS [PEP012], for which, in the assay on small intestine organoid, the “number of lobes of sprouted organoids” value is given as “significantly increased”. Besides, in assay [1], the “blood glucose … (ITT)” value was “decreased close to a significant level from 30 minutes to 120 minutes after insulin administration” and the “AUC value” value is “decreased close to a significant level”.

Turning to AVS (AVSSIKGAY) [PEP004], in assay [2], the ear thickness result was “significantly decreased”; the ear weight entry was “significantly decreased”; the “erythema and swelling of the ear (macro photograph)” value (shortened to “erythema and swelling of the ear”) was “significantly reduced”. Besides, in assay [1], the fasting blood glucose entry is recorded as “decreased”, the “blood glucose … (ITT)” value is recorded as “decreased at 30 minutes after insulin administration”, the body weight entry is on record as “significantly decreased” and the “maintenance of the decreased blood glucose in insulin resistance experiment” value is “significantly maintained until 120 minutes”. Also, in assay [1], the “AUC value” value is “decreased”, the “LDL-C level in blood” value is reported as “significantly decreased”, the “TC (total cholesterol) level in blood” value is “tended to decrease” and the abdominal fat entry is on record as “decreased”.

AVSSI (PEP002): in assay [2], the ear thickness result is listed as “significantly decreased”; the ear weight entry was “significantly decreased”; the “erythema and swelling of the ear” value is “significantly reduced”. For the same molecule, in assay [1], the fasting blood glucose result was “decreased”, the “blood glucose … (ITT)” value was “decreased at 30 minutes after insulin administration”, the body weight result is “decreased from the initial body weight” and the “AUC value” value is recorded as “decreased”. Also, in assay [1], the “LDL-C level in blood” value is “significantly decreased”, the “TC (total cholesterol) level in blood” value is given as “decreased” and the abdominal fat result is “decreased”.

For AVSSIKGAY (PEP001), in assay [2], the ear thickness result is given as “significantly decreased”; the ear weight entry was “significantly decreased”; the “erythema and swelling of the ear” value is “significantly reduced”. For the same molecule, in assay [1], the “blood glucose … (ITT)” value is reported as “decreased at 30 minutes after insulin administration”, the body weight entry was “decreased from the initial body weight”, the “AUC value” value was “decreased” and the “LDL-C level in blood” value is “significantly decreased”. For the same molecule, in assay [1], the “TC (total cholesterol) level in blood” value was “decreased” and the abdominal fat entry is listed as “decreased”.

Consider GAY [PEP005], for which, in assay [2], the ear thickness entry is on record as “significantly decreased”; the ear weight result is on record as “significantly decreased”; the “erythema and swelling of the ear” value was “significantly reduced”. Besides, in assay [1], the fasting blood glucose result is on record as “decreased”, the “blood glucose … (ITT)” value is “decreased at 30 minutes after insulin administration”, the body weight entry is “significantly decreased” and the “AUC value” value was “decreased”. Further, in assay [1], the “LDL-C level in blood” value is “significantly decreased”, the “TC (total cholesterol) level in blood” value is “tended to decrease” and the abdominal fat result is listed as “decreased”.

Turning to KGAY (PEP003), in assay [2], the ear thickness entry was “significantly decreased”; the ear weight result is given as “significantly decreased”; the “erythema and swelling of the ear” value is given as “significantly reduced”. In assay [1], the fasting blood glucose result was “decreased”, the “blood glucose … (ITT)” value is recorded as “decreased at 30 minutes after insulin administration”, the body weight entry was “significantly decreased” and the “maintenance of the decreased blood glucose in insulin resistance experiment” value is on record as “significantly maintained until 120 minutes”. In assay [1], the “AUC value” value is recorded as “decreased”, the “LDL-C level in blood” value is given as “significantly decreased”, the “TC (total cholesterol) level in blood” value was “significantly decreased” and the abdominal fat result was “decreased”.

B1: Amuc_1409: SEQ ID NO: 15, functional fragment obtained by eliminating the leader sequence from SEQ ID NO: 14; protein derived from Akkermansia muciniphila (protein)
chain: IPESSVPAAAVSSIKGAYPNAGPIEWDSEMHGMERIYEAEFRINGFQFDVKIAPDGKIVRIKEEIAASSLPEAVRASVLKRYPGCRIKEAEKITEGELVRYKVEVADSRDDYDVLIAPDGNILHVDR
modifications: Amuc_1409_fragment
notes: protein derived from Akkermansia muciniphila
In the case of B1, in assay [2], the ear thickness result is given as “tended to decrease”; the ear weight result is given as “significantly decreased”; the “erythema and swelling of the ear” value is recorded as “reduced overall”; the “ear tissue swelling and inflammatory cell infiltration (H&E)” value is “significantly reduced”. In assay [1], the fasting blood glucose result was “significantly decreased”, the “blood glucose … (ITT)” value is listed as “decreased from 30 minutes to 120 minutes after insulin administration”, the body weight entry is given as “decreased from the initial body weight” and the “maintenance of the decreased blood glucose in insulin resistance experiment” value is recorded as “significantly maintained until 120 minutes”. In addition, in assay [1], the “AUC value” value was “decreased close to a significant level” and the abdominal fat entry is “significantly decreased”.

Values taken from patent US20240209022A1, “NOVEL PEPTIDE HAVING ANTI-INFLAMMATORY AND TISSUE REGENERATIVE ACTIONS” (KOREA RESEARCH INSTITUTE OF BIOSCIENCE AND BIOTECHNOLOGY, priority 2020, published 2024).
